Reference: patent US9446039B2, “Aminoheteroaryl compounds as MTH1 inhibitors” (CEMM—FORSCHUNGSZENTRUM FÜR MOLEKULARE MEDIZIN GMBH, priority 2012, dated 2016)

Legend:
Format in all cases: binding
[1] = molecular target: SW480 colon carcinoma cells lysate proteins (Homo sapiens, UniProt Q00610); details: PreyGene CLTC; SW480 cells
[2] = molecular target: SW480 colon carcinoma cells lysate proteins (Homo sapiens, UniProt P23528); details: PreyGene CFL1
[3] = molecular target: SW480 colon carcinoma cells lysate proteins (Homo sapiens, UniProt P68371); details: PreyGene TUBB4B; SW480 cells
Chain of SW480 colon carcinoma cells lysate proteins (Homo sapiens, UniProt P68371) (P68371 whole entry): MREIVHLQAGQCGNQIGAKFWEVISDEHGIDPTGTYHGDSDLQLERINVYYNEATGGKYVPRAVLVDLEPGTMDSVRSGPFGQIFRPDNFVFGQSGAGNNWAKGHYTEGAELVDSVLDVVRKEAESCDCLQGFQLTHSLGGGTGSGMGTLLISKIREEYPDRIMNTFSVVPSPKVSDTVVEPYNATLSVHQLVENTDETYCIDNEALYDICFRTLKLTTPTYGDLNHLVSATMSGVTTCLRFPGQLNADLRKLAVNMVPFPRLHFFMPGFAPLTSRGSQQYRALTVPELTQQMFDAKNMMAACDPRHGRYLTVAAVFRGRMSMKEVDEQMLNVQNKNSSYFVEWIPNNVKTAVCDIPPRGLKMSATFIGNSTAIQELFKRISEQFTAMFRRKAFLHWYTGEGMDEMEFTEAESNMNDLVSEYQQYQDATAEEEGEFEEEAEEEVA

[4] = molecular target: SW480 colon carcinoma cells lysate proteins (Homo sapiens, UniProt Q13576); details: PreyGene IQGAP2
Chain of SW480 colon carcinoma cells lysate proteins (Homo sapiens, UniProt Q13576) (Q13576 whole entry): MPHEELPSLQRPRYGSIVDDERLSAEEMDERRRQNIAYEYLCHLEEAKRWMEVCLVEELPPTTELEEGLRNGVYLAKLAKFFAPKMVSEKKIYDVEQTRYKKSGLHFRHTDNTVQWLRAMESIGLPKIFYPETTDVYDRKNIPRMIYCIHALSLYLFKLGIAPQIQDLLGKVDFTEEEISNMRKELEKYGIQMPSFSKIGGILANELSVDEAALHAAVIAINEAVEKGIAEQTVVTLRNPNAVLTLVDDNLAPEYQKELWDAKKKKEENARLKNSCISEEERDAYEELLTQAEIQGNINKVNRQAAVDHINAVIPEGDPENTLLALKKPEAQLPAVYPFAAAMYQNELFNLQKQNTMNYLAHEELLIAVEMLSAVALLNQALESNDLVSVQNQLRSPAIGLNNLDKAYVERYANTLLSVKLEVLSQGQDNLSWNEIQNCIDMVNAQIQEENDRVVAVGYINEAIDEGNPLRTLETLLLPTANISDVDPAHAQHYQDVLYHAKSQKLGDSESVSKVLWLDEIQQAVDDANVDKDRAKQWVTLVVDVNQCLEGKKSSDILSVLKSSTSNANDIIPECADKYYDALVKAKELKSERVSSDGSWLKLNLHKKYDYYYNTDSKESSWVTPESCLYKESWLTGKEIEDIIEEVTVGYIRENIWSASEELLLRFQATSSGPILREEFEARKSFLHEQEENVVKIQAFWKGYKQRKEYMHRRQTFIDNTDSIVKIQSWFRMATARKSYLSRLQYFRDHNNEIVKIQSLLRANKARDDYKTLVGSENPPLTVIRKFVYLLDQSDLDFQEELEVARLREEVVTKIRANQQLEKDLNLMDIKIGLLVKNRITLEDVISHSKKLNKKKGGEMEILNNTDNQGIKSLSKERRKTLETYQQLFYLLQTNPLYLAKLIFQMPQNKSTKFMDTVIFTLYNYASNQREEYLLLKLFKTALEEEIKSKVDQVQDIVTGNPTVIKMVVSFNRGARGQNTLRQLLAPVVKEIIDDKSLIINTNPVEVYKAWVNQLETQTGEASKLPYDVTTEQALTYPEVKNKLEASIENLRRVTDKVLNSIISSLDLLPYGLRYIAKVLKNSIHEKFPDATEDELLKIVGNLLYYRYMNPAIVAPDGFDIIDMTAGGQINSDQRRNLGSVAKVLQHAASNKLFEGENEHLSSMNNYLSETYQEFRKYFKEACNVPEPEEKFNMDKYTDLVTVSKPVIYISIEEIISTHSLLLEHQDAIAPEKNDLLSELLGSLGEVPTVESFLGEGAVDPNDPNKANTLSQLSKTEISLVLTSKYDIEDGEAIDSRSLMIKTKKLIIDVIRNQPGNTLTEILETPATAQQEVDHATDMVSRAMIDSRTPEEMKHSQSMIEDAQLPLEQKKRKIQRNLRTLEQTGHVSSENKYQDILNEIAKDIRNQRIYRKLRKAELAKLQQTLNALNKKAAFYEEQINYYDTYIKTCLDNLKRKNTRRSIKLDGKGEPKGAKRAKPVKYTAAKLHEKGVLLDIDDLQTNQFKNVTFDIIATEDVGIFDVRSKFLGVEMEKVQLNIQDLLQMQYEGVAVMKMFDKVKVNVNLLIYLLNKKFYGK

[5] = molecular target: T1, SW480 colon carcinoma cells lysate proteins (Homo sapiens, UniProt Q7RTS7); details: PreyGene KRT74; SW480 cells
T1 sequence (Q7RTS7 1-529): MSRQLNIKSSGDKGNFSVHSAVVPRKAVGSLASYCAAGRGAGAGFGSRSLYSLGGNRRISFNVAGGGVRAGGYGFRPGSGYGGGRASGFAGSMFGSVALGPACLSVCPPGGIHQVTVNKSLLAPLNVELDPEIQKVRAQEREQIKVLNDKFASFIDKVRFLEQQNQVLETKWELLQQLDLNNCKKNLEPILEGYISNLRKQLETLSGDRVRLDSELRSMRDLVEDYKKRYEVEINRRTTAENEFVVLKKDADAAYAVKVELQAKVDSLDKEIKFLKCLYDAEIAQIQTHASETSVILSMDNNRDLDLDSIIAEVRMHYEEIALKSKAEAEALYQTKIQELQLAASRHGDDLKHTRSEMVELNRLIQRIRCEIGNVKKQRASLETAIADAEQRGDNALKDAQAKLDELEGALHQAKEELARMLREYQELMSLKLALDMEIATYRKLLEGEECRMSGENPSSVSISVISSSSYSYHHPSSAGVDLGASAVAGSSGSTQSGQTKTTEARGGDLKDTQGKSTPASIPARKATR

[6] = molecular target: SW480 colon carcinoma cells lysate proteins (Homo sapiens, UniProt O00571); details: PreyGene DDX3X
Chain of SW480 colon carcinoma cells lysate proteins (Homo sapiens, UniProt O00571) (O00571 whole entry): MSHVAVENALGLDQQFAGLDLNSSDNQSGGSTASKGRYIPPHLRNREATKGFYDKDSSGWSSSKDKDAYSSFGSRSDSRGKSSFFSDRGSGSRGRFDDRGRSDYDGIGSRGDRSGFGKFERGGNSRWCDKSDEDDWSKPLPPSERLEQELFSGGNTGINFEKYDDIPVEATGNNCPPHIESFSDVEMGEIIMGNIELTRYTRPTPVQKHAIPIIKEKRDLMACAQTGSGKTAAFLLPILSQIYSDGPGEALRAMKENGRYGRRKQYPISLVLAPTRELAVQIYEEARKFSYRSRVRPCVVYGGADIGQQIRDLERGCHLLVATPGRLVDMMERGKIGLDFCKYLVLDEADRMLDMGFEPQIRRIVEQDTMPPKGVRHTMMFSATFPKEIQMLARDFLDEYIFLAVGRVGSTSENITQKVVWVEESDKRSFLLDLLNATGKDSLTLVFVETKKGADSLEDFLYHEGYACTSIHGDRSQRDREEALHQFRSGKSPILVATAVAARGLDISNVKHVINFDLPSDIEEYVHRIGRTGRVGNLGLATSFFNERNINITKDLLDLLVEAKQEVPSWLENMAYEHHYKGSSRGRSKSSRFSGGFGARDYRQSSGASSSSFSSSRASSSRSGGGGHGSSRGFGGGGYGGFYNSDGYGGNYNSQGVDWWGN

[7] = molecular target: SW480 colon carcinoma cells lysate proteins (Homo sapiens, UniProt P23526); details: PreyGene AHCY
Chain of SW480 colon carcinoma cells lysate proteins (Homo sapiens, UniProt P23526) (P23526 whole entry): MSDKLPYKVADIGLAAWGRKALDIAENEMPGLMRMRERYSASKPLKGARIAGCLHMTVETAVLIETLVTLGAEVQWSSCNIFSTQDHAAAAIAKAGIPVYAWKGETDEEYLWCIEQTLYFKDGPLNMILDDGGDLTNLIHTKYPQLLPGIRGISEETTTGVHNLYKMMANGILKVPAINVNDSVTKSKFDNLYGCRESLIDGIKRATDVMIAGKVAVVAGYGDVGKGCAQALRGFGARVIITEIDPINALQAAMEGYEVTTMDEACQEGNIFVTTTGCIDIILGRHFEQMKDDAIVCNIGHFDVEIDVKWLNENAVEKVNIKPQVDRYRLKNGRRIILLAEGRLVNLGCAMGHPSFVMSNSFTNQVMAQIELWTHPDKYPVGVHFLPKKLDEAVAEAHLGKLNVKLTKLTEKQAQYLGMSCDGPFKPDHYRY

[8] = molecular target: T2, SW480 colon carcinoma cells lysate proteins (Homo sapiens, UniProt Q9Y2B0); details: PreyGene CNPY2; SW480 cells
T2 sequence (Q9Y2B0 21-182): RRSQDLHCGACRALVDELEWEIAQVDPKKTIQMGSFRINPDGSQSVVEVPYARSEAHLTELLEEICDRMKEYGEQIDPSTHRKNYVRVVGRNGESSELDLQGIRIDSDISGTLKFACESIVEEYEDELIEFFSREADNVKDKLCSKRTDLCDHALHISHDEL

[9] = molecular target: T3, SW480 colon carcinoma cells lysate proteins (Homo sapiens, UniProt P02533); details: PreyGene KRT14
T3 sequence (P02533 1-472): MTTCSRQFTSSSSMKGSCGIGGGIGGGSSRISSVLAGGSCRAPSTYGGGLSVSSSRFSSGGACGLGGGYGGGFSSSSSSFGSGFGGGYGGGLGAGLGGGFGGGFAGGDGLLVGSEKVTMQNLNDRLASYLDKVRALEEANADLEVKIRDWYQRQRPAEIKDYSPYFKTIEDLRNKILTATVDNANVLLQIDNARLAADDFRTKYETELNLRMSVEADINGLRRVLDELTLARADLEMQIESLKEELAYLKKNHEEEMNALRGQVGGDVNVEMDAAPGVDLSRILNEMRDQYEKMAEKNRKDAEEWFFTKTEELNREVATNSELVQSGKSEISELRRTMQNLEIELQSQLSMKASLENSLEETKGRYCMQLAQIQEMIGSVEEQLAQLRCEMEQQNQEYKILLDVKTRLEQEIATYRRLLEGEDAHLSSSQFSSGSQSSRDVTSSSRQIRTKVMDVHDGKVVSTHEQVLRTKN

[10] = molecular target: T4, SW480 colon carcinoma cells lysate proteins (Homo sapiens, UniProt O00764); details: PreyGene PDXK
T4 sequence (O00764 1-312): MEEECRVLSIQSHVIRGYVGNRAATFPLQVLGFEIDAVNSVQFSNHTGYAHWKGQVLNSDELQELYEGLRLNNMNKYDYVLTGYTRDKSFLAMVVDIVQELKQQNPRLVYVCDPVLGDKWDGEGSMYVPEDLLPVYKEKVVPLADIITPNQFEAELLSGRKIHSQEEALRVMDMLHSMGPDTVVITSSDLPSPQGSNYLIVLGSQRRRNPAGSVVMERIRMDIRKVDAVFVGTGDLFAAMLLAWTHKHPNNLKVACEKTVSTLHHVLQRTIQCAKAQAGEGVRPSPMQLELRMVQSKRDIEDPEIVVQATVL

Chain of SW480 colon carcinoma cells lysate proteins (Homo sapiens, UniProt Q00610) (Q00610 whole entry): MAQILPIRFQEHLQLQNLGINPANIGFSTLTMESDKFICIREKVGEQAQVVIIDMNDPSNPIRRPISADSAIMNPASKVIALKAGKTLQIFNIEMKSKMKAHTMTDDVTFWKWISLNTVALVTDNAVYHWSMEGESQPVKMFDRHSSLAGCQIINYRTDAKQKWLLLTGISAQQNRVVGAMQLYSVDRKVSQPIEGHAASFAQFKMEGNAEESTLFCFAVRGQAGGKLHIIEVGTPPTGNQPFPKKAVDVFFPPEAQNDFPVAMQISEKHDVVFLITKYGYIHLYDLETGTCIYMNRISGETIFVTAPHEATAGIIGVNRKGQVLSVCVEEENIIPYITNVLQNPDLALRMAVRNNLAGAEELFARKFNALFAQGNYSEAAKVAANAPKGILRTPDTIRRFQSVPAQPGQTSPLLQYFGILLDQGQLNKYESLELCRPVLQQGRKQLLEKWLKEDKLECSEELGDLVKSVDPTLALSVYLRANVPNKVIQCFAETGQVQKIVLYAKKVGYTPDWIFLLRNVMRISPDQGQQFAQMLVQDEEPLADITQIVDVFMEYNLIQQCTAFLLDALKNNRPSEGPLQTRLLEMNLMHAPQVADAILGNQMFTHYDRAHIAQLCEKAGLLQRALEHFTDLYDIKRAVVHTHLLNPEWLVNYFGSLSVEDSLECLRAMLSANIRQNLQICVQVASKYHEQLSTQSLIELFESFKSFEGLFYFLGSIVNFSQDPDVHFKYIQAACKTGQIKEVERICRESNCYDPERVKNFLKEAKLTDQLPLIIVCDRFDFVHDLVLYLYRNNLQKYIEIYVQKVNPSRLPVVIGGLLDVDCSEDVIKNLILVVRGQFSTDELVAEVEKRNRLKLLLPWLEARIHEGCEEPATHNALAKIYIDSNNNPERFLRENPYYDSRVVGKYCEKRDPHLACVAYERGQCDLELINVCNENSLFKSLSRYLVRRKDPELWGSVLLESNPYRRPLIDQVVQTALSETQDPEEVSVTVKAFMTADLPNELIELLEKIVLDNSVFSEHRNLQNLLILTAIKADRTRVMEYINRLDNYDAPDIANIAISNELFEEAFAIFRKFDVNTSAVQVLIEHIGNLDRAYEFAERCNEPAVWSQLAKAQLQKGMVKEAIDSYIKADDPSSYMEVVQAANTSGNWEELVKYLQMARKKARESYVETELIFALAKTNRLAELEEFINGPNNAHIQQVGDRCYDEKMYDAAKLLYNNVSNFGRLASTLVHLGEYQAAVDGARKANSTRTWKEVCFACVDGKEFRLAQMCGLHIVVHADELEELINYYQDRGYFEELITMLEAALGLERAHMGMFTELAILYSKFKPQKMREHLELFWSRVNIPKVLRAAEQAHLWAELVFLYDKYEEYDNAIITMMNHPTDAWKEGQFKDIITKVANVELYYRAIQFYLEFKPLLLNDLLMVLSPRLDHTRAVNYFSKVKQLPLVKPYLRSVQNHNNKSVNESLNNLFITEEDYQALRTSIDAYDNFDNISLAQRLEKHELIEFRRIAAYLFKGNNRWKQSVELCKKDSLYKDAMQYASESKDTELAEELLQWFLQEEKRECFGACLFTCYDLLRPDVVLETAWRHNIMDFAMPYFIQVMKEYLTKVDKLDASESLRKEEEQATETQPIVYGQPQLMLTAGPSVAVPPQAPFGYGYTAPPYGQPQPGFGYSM
Chain of SW480 colon carcinoma cells lysate proteins (Homo sapiens, UniProt P23528) (P23528 whole entry): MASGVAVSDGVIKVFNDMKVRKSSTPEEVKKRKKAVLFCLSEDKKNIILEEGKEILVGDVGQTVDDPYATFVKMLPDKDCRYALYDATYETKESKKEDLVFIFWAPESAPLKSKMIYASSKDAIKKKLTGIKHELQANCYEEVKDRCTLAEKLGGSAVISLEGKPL

C[C@H](Oc1cc(-c2cnn(C3CCNCC3)c2)cnc1N)c1c(Cl)ccc(F)c1Cl [(5)-crizotinib]
AvgP [1]: 0 | SC.Exp. 1-1 [1]: 16 | SC.Exp. 1-2 [1]: 14 | SC.Exp. 2-1 [1]: 5 | SC.Exp. 2-2 [1]: 7 | SC.Exp. Sum [1]: 42 | AvgP [2]: 0.3871 | SC.Exp. 1-1 [2]: 12 | SC.Exp. 1-2 [2]: 11 | SC.Exp. 2-1 [2]: 1 | SC.Exp. 2-2 [2]: 0 | Sum (SC.Exp.) [2]: 24 | AvgP [3]: 0 | SC.Exp. 1-1 [3]: 8 | SC.Exp. 1-2 [3]: 8 | SC.Exp. 2-1 [3]: 2 | SC.Exp. 2-2 [3]: 4 | SC.Exp. Sum [3]: 22 | AvgP [4]: 0.4584 | SC.Exp. 1-1 [4]: 9 | SC.Exp. 1-2 [4]: 9 | SC.Exp. 2-1 [4]: 0 | SC.Exp. 2-2 [4]: 0 | Sum (SC.Exp.) [4]: 18 | AvgP [5]: 0 | SC.Exp. 1-1 [5]: 1 | SC.Exp. 1-2 [5]: 1 | SC.Exp. 2-1 [5]: 0 | SC.Exp. 2-2 [5]: 0 | SC.Exp. Sum [5]: 2 | AvgP [6]: 0.7764 | SC.Exp. 1-1 [6]: 2 | SC.Exp. 1-2 [6]: 2 | SC.Exp. 2-1 [6]: 1 | SC.Exp. 2-2 [6]: 2 | Sum (SC.Exp.) [6]: 7 | AvgP [7]: 0.4716 | SC.Exp. 1-1 [7]: 4 | SC.Exp. 1-2 [7]: 4 | SC.Exp. 2-1 [7]: 0 | SC.Exp. 2-2 [7]: 0 | Sum (SC.Exp.) [7]: 8 | AvgP [8]: 0 | SC.Exp. 1-1 [8]: 1 | SC.Exp. 1-2 [8]: 0 | SC.Exp. 2-1 [8]: 0 | SC.Exp. 2-2 [8]: 0 | SC.Exp. Sum [8]: 1 | AvgP [9]: 0.4038 | SC.Exp. 1-1 [9]: 4 | SC.Exp. 1-2 [9]: 2 | SC.Exp. 2-1 [9]: 0 | SC.Exp. 2-2 [9]: 0 | Sum (SC.Exp.) [9]: 6 | AvgP [10]: 0.2207 | SC.Exp. 1-1 [10]: 3 | SC.Exp. 1-2 [10]: 0 | SC.Exp. 2-1 [10]: 0 | SC.Exp. 2-2 [10]: 0 | Sum (SC.Exp.) [10]: 3
